According to US8552176B2 (priority 2010, dated 2013):

How the values were obtained:
Test in all cases: cells
Assay type in all cases: cell-based, human
A549 = settings: read-out: GI50 A549 lung (+p53)
H1299 = settings: read-out: GI50 H1299 lung (−p53)
NCI-H460 = settings: read-out: GI50 NCI-H460 lung
HCT-15 = settings: read-out: GI50 HCT-15 colorectal
HT29 = settings: read-out: GI50 HT29 colorectal
Hep3b = settings: read-out: GI50 Hep3b liver
MCF7 = settings: read-out: GI50 MCF7 breast
DU-145 = settings: read-out: GI50 DU-145 prostate
SF-268 = settings: read-out: GI50 SF-268 CNS
SKOV3 = settings: read-out: GI50 SKOV3 ovary

Row | Structure (SMILES) | GI50 (A549) [µM] | GI50 (H1299) [µM] | GI50 (NCI-H460) [µM] | GI50 (HCT-15) [µM] | GI50 (HT29) [µM] | GI50 (Hep3b) [µM] | GI50 (MCF7) [µM] | GI50 (DU-145) [µM] | GI50 (SF-268) [µM] | GI50 (SKOV3) [µM]
1 | CON(CCCCc1ccc(N(CCCl)CCCl)cc1)C1OCC(O)C(O)C1O (mixture of isomers) [Compound 41] | 2.3 ± 0.1 | 0.76 ± 0.05 | 5.2 ± 0.4 | 0.79 ± 0.05 | 2 ± 0.1 | 2.5 ± 0.1 | 1 ± 0.2 | 3.6 ± 0.1 | 1.6 ± 0.1 | 1.8 ± 0.1
2 | CON(CCCCc1ccc(N(CCCl)CCCl)cc1)C1OCC(O)C(O)C1O (mixture of isomers) [Compound 42] | 2.2 ± 0.1 | 0.88 ± 0.04 | 5.8 ± 0.1 | 0.95 ± 0.08 | 2.4 ± 0.1 | 3 ± 0.1 | 0.94 ± 0.2 | 3.9 ± 0.1 | 1.2 ± 0.1 | 1.8 ± 0.1
3 | CON(CCCCc1ccc(N(CCCl)CCCl)cc1)C1OC(CO)C(O)C(O)C1O (mixture of isomers) [Compound 43] | 3.5 ± 0.2 | 1.01 ± 0.07 | 7.8 ± 0.7 | 1.9 ± 0.2 | 2.6 ± 0.2 | 3.2 ± 0.2 | 1.9 ± 0.1 | 5.1 ± 0.2 | 1.8 ± 0.1 | 2.3 ± 0.1
4 | CON(CCCCc1ccc(N(CCCl)CCCl)cc1)C1OC(CO)C(O)C(O)C1O (mixture of isomers) [Compound 44] | 4.1 ± 0.2 | 1.2 ± 0.1 | 9.8 ± 0.9 | 2.2 ± 0.1 | 3.4 ± 0.2 | 3.7 ± 0.2 | 2.2 ± 0.2 | 4.9 ± 0.1 | 2 ± 0.1 | 2.9 ± 0.1
5 | CON(CCCCc1ccc(N(CCCl)CCCl)cc1)C1OC(CO)C(O)C(O)C1NC(C)=O (mixture of isomers) [Compound 45] | 21 ± 2 | 2.7 ± 0.2 | 33.3 ± 0.5 | 22 ± 2 | 8.7 ± 0.7 | 9.8 ± 0.7 | 9 ± 1 | 16 ± 1 | 3.4 ± 0.2 | 10.1 ± 0.9
6 | CON(CCCCc1ccc(N(CCCl)CCCl)cc1)C1OC(C)C(O)C(O)C1O (mixture of isomers) [Compound 51] | 2.5 ± 0.1 | 3.7 ± 0.3 | 5.3 ± 0.4 | 2 ± 0.1 | 2.4 ± 0.1 | 2.6 ± 0.1 | 2.2 ± 0.2 | 4.2 ± 0.1 | 1.9 ± 0.1 | 2 ± 0.1
7 | CON(CCCCc1ccc(N(CCCl)CCCl)cc1)C1CC(O)C(O)CO1 (mixture of isomers) [Compound 55] | 2.6 ± 0.2 | 3.7 ± 0.2 | 5.8 ± 0.6 | 2.3 ± 0.1 | 2.6 ± 0.1 | 2.6 ± 0.1 | 0.96 ± 0.02 | 4 ± 0.1 | 2.1 ± 0.1 | 2 ± 0.1
8 | CON(CCCCc1ccc(N(CCCl)CCCl)cc1)C1CC(O)C(O)CO1 (mixture of isomers) [Compound 56] | 2.5 ± 0.1 | 3.9 ± 0.5 | 5.2 ± 0.6 | 2.2 ± 0.1 | 2.3 ± 0.1 | 2.5 ± 0.1 | 1.3 ± 0.2 | 3.3 ± 0.1 | 2 ± 0.1 | 2.2 ± 0.1
9 | CC(=O)OC1COC(N(CCCCc2ccc(N(CCCl)CCCl)cc2)OC(C)=O)C(OC(C)=O)C1OC(C)=O (mixture of isomers) [Compound 69, N-Acetoxy-4-(4-N′,N′-bis(2-chloroethyl)amino)phenylbutylamino-D-riboside peracetate] | 1.12 ± 0.07 | 1.05 ± 0.05 | 1.3 ± 0.1 | 1.1 ± 0.1 | 0.96 ± 0.07 | > 5 | 4.6 ± 0.3 | > 5 | 1.6 ± 0.1 | 0.53 ± 0.01
10 | O=C(CCCc1ccc(N(CCCl)CCCl)cc1)NN=CC(O)C(O)CO (mixture of isomers) [Compound 74, 4-(4-N′,N′-bis(2-chloroethyl)amino)phenylbutylhydrazido-D-threoside inline] | 7.5 ± 0.5 | 2.6 ± 0.2 | 10.8 ± 0.8 | 7.3 ± 0.4 | 4.8 ± 0.1 | 4.1 ± 0.4 | 4.2 ± 0.2 | 9.5 ± 0.7 | 2.6 ± 0.2 | 6.2 ± 0.6
11 | CON(CCCCc1ccc(N(CCCl)CCCl)cc1)C1OC(COCc2ccccc2)C(OCc2ccccc2)C1OCc1ccccc1 (stereo not shown) [Compound 16] | > 100 | > 100 | > 100 | 64 ± 8 | 47 ± 1 | > 100 | 82 ± 1 | > 100 | 80 ± 5 | > 100
12 | CON(CCCCc1ccc(N(CCCl)CCCl)cc1)C1OCC(O)C1O (stereo not shown) [Compound 19] | 3.1 ± 0.8 | 1.1 ± 0.1 | 7.8 ± 0.9 | 0.77 ± 0.09 | 1.6 ± 0.1 | 4.1 ± 0.9 | 8 ± 0.1 | 5 ± 0.7 | 2.4 ± 0.8 | 2.6 ± 0.9
13 | CON(CCCCc1ccc(N(CCCl)CCCl)cc1)C1OC(CO)C(O)C(O)C1O (stereo not shown) [Compound 28] | 4.5 ± 0.2 | 1.4 ± 0.1 | 12.3 ± 0.7 | 2.8 ± 0.2 | 2.9 ± 0.4 | 3.4 ± 0.1 | 1.5 ± 0.1 | 5.5 ± 0.2 | 1.8 ± 0.1 | 3 ± 0.1
14 | CON(CCCCc1ccc(N(CCCl)CCCl)cc1)C1OC(CO)C(O)C(O)C1O (stereo not shown) [Compound 29] | 6.8 ± 0.8 | 1.6 ± 0.1 | 14.3 ± 0.9 | 2.8 ± 0.2 | 4.6 ± 0.4 | 5 ± 0.6 | 1.8 ± 0.2 | 7 ± 0.5 | 2.2 ± 0.1 | 4.5 ± 0.6
15 | CON(CCCCc1ccc(N(CCCl)CCCl)cc1)C1CC(O)C(O)C(CO)O1 (stereo not shown) [Compound 30] | 3.1 ± 0.5 | 0.58 ± 0.06 | 5.4 ± 0.6 | 0.7 ± 0.05 | 1.2 ± 0.2 | 3.7 ± 0.3 | 5.4 ± 0.1 | 4.3 ± 0.3 | 2.5 ± 0.5 | 1.12 ± 0.1
16 | CON(CCCCc1ccc(N(CCCl)CCCl)cc1)C1OC(CO)C(O)C(O)C1F (stereo not shown) [Compound 31] | 2.6 ± 0.1 | 1.2 ± 0.1 | 6.4 ± 0.07 | 1.08 ± 0.04 | 2.4 ± 0.2 | 3.2 ± 0.1 | 7.3 ± 0.1 | 4.2 ± 0.1 | 2.2 ± 0.1 | 2 ± 0.1
17 | CON(CCCCc1ccc(N(CCCl)CCCl)cc1)C1OC(CO)C(O)C(F)C1O (stereo not shown) [Compound 32] | 3 ± 0.1 | 1.3 ± 0.1 | 7.1 ± 0.9 | 1.2 ± 0.1 | 2.6 ± 0.2 | 3.2 ± 0.1 | 7 ± 0.8 | 4.1 ± 0.1 | 2.2 ± 0.1 | 2.2 ± 0.1
18 | COC1C(O)C(CO)OC(N(CCCCc2ccc(N(CCCl)CCCl)cc2)OC)C1O (stereo not shown) [Compound 33] | 3.6 ± 0.2 | 1.7 ± 0.1 | 7.8 ± 0.08 | 1.1 ± 0.1 | 2.7 ± 0.2 | 4.2 ± 0.2 | 8.3 ± 0.1 | 5.1 ± 0.1 | 2.8 ± 0.1 | 2.4 ± 0.1
19 | C=CCOC(=O)NCC1OC(N(CCCCc2ccc(N(CCCl)CCCl)cc2)OC)C(O)C(O)C1O (stereo not shown) [Compound 35] | 4.5 ± 0.3 | 2.1 ± 0.1 | 11 ± 0.1 | 2.1 ± 0.1 | 2.8 ± 0.2 | 4.6 ± 0.2 | 7.4 ± 0.1 | 6.2 ± 0.4 | 3.1 ± 0.1 | 2.9 ± 0.1
20 | CON(CCCCc1ccc(N(CCCl)CCCl)cc1)C1OC(CCl)C(O)C(O)C1O (stereo not shown) [Compound 36] | 3 ± 0.1 | 1.3 ± 0.1 | 5.8 ± 0.6 | 1.2 ± 0.1 | 2.1 ± 0.1 | 3.2 ± 0.2 | 4.9 ± 0.1 | 3.7 ± 0.1 | 2.1 ± 0.1 | 2.1 ± 0.1
21 | CON(CCCCc1ccc(N(CCCl)CCCl)cc1)C1OC(C(=O)O)C(O)C(O)C1O (stereo not shown) [Compound 38] | 5.5 ± 0.3 | 0.99 ± 0.03 | 9.1 ± 0.9 | 1.03 ± 0.05 | 3.2 ± 0.3 | 4.9 ± 0.3 | 6 ± 0.1 | 3.9 ± 0.1 | 1.6 ± 0.1 | 3.1 ± 0.1
22 | CON(CCCCc1ccc(N(CCCl)CCCl)cc1)C1O[C@H](CO)[C@@H](O[C@@H]2O[C@H](CO)[C@H](O)[C@H](O)[C@H]2O)[C@H](O)[C@@H]1O (stereo partly shown) [Compound 46] | 56 ± 1 | 24 ± 1 | 57.7 ± 0.5 | 31 ± 1 | 34 ± 3 | 38 ± 2 | 26 ± 2 | 43 ± 3 | 19.1 ± 0.7 | 35 ± 1
23 | CON(CCCCc1ccc(N(CCCl)CCCl)cc1)[C@@H]1O[C@H](CO[C@H]2O[C@H](CO)[C@H](O)[C@H](O)[C@H]2O)[C@@H](O)[C@H](O)[C@H]1O [Compound 47] | 40 ± 2 | 17.8 ± 0.06 | 45.5 ± 0.4 | 20 ± 1 | 27.4 ± 0.3 | 29 ± 3 | 21 ± 2 | 36 ± 1 | 16.3 ± 0.5 | 27 ± 1
24 | CON(CCCCc1ccc(N(CCCl)CCCl)cc1)[C@@H]1O[C@H](CO)[C@@H](O)[C@H](O[C@H](C)C(=O)O)[C@H]1NC(C)=O [Compound 48] | 8.6 ± 0.6 | 2.4 ± 0.2 | 13.1 ± 0.3 | 3.1 ± 0.2 | 6.3 ± 0.3 | 8 ± 0.4 | 4.5 ± 0.3 | 8.9 ± 0.3 | 4.1 ± 0.1 | 7 ± 0.2
25 | CO[C@@H]1[C@@H](OC(N)=O)[C@@H](O)C(N(CCCCc2ccc(N(CCCl)CCCl)cc2)OC)OC1(C)C (stereo partly shown) [Compound 49] | 5.8 ± 0.8 | 1.3 ± 0.2 | 9.7 ± 0.5 | 1.7 ± 0.2 | 6 ± 0.1 | 6 ± 1 | 4.8 ± 0.9 | 6.7 ± 0.5 | 5.1 ± 0.8 | 5.4 ± 0.8
